# pIC50: −log10 of the molar value.
# Target: Cyclin-A2/Cyclin-dependent kinase 2 (Homo sapiens, UniProt P24941)
# Assay: Biochemical Assay
# Description: CDK2 and CDK5 IC50 data were attained through the use of Invitrogen™ commercial assays. The method for CDK2 (assay ID: 315, kinase|Z'-LYTE™|CDK2/Cyclin A|Km app) used a 10-point titration. The method for CDK5 (assay ID: 318, kinase|Z'-LYTE™|CDK5/p25|Km app) used a 10-point titration. All the bifunctional compounds showed potent biochemical inhibition on both CDK2/5 enzymes.
row,SMILES,pIC50
1,"Cc1ncsc1-c1ccc([C@H](C)NC(=O)[C@@H]2C[C@@H](O)CN2C(=O)[C@@H](NC(=O)CCOCCOCCC(=O)NCCS(=O)(=O)N2CCC(Nc3ncc(Br)c(Nc4cccc(F)c4C(N)=O)n3)CC2)C(C)(C)C)cc1 [US12466809, Compound 11]",8.17
2,"Cc1ncsc1-c1ccc([C@H](C)NC(=O)[C@@H]2C[C@@H](O)CN2C(=O)[C@@H](NC(=O)CCC(=O)NCCS(=O)(=O)N2CCC(Nc3ncc(Br)c(Nc4cccc(F)c4C(N)=O)n3)CC2)C(C)(C)C)cc1 [US12466809, Compound 12]",8.28

# Continued, values first:
row,pIC50,SMILES
1,8.42,"NC(=O)c1c(F)cccc1Nc1nc(NC2CCN(S(=O)(=O)CCNC(=O)CCC(=O)NCCCCCNc3cccc4c3C(=O)N(C3CCC(=O)NC3=O)C4=O)CC2)ncc1Br (stereo unspecified) [US12466809, Compound 13]"
2,7.24,"NC(=O)c1c(F)cccc1Nc1nc(NC2CCN(S(=O)(=O)CCNC(=O)CCCCCCCCC#Cc3cccc4c3CN(C3CCC(=O)NC3=O)C4=O)CC2)ncc1Br (stereo unspecified) [US12466809, Compound 14]"
3,7.30,"NC(=O)c1c(F)cccc1Nc1nc(NC2CCN(S(=O)(=O)CCNC(=O)CCCCCCCCCCc3cccc4c3CN(C3CCC(=O)NC3=O)C4=O)CC2)ncc1Br (stereo unspecified) [US12466809, Compound 15]"
4,< 6.43,"O=C(CCCCCCCCC#Cc1cccc2c1CN(C1CCC(=O)NC1=O)C2=O)NCCS(=O)(=O)N1CCC(Nc2ncc(Br)c(Nc3cccc4c3OCO4)n2)CC1 (stereo unspecified) [US12466809, Compound 16]"
